Laboratory results as given in paper PMC11436757, “BRCA2 stabilises RAD51 and DMC1 nucleoprotein filaments through a conserved interaction mode” (Nature Communications, 2024).
“Also recorded” adds a separate entry of the source. No end group written: not given here.

Legend:
[1] = system: DMC1-ssDNA filaments; test: EMSA, protection of DMC1-ssDNA filaments from BRC4-mediated disruption; type: biochemical, human; details: 10-fold excess of BRC4
Experimental: Finally, we tested whether binding of BRCA2 Ex14 protects DMC1-ssDNA nucleoprotein filaments from BRC4-mediated disruption (Fig. 3c). […] Further, whilst the core PhePP interaction site is sufficient to stimulate DMC1-ssDNA nucleoprotein filament formation, surrounding amino-acids that are present within Ex14 (but not Ex14-Tr) are necessary to super-shift filaments and confer protection from BRC4-mediated disruption.
(§1) To form nucleoprotein filaments, DMC1 and RAD51 was incubated with fluorescent 100-base ssDNA (5’-FAM- […]-3’) at the concentrations indicated in the figures for 30 minutes at 4 °C in reaction buffer. For DMC1, reaction buffer is 25 mM TEA (triethanolamine) pH 7.5, 1 mM ATP, 2 mM MgCl2, 0.1 mg/ml BSA, 2 mM DTT, 200 mM KCl. For RAD51, reaction buffer is 50 mM TEA (triethanolamine), 2 mM ATP, 0.5 mM MgCl2, 2 mM DTT. For assays requiring incomplete nucleoprotein filament assembly, the reaction buffer consisted of 50 mM TAE (tris, acetate, EDTA) pH 7.5, 2 mM ATP, 2 mM MgCl2, 2 mM DTT. In nucleoprotein formation stimulation assays or supershift experiments, BRCA2Ex14 or BRCA2Ex14-AAA were added for a further 30 min at 4 °C. […] Glycerol was added at a final concentration of 3%, and samples were analysed by electrophoresis on a 1% (w/v) (for DMC1) or 0.66% (w/v) (for RAD51) agarose gel in 0.5x TAE pH 8.0 at 20–40 V for ~4 h at 4 °C. DNA was detected by FAM using a Typhoon^TM FLA 9500 (GE Healthcare), with 473 nm laser at excitation wavelength 490 nm and emission wavelength 520 nm, using the LPB filter and a PMT voltage of 500 V. To analyse RAD51 nucleoprotein filaments assembled upon 100-base poly(dT) ssDNA, gels were stained post-run using SYBR^TM Gold Nucleic Acid Gel Stain (Invitrogen) and detected using a Typhoon^TM FLA 9500 (GE Healthcare).

[2] = system: DMC1-ssDNA filaments; test: EMSA, super-shift of DMC1-ssDNA filaments (TEA pH 7.5 + KCl); type: biochemical, human
From the text: What is the function of the BRCA2 Ex14-DMC1 interaction? We used electrophoretic mobility shift assays (EMSAs) to determine the impact of BRCA2-binding on DMC1 nucleoprotein filaments. We used two different conditions for nucleoprotein filament assembly. Firstly, a TAE (tris, acetate, EDTA; pH 7.5) buffer that was previously used for RAD51-ssDNA filaments, in which DMC1-ssDNA filaments were partially formed at the canonical ratio of three nucleotides to one protomer (Fig. 3a). Secondly, a TEA (triethanolamine; pH 7.5) + KCl buffer based on previous DMC1 studies[36]–[38], in which DMC1-ssDNA filament formation was more complete at the canonical ratio (Fig. 3b). […] This was noticeable using Ex14 in equimolar amounts (11 μM), and became substantial at a 5-fold stoichiometric excess (55 μM) (Fig. 3b). As the KD of the DMC1-Ex14 interaction is approximately 30 μM (Fig. 2a), the requirement for a stoichiometric excess is likely due to binding being favoured at Ex14 concentrations above the KD.
as §1

[3] = biological target: T1, DMC1 ΔN loop mutant (Homo sapiens, UniProt Q14565, A148D/A183D/D180S/D182S/G147I/G149R/G153E/H181G/N178G/P152G/V179L/Y151G); test: Microscale thermophoresis (MST), BRCA2 peptide and DMC1 ΔN loop mutant; type: binding; details: labelled DMC1 ΔN loop mutant 150 nM; pH 8.0
T1 construct: DMC1 ΔN (83-340) were cloned into pHAT4; made in house
T1 sequence (Q14565 83-340 G147I/A148D/G149R/Y151G/P152G/G153E/N178G/V179L/D180S/H181G/D182S/A183D limits assumed): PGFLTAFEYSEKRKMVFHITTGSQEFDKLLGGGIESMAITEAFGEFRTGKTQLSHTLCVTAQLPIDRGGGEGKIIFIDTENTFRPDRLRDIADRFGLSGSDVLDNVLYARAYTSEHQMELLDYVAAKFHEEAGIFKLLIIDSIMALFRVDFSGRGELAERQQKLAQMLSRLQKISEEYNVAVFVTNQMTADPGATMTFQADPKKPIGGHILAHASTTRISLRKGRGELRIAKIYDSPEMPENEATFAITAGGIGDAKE
Experimental: DMC1 ΔN and DMC1 ΔN loop mutant were labelled in 10 mM HEPES pH 8.0, 150 mM NaCl with an amine reactive fluorescent dye (MonolithTM Protein Labelling Kit BLUE-NHS, Nanotemper GmbH). A serial dilution of titrant (peptide) was prepared in 10 mM HEPES pH 8.0, 150 mM NaCl, 0.05 % Tween-20. The concentration of labelled DMC1 ΔN or DMC1 ΔN loop mutant were constant at 150 nM and the concentration of the interacting peptide was titrated in 1:1 dilutions starting from 750 µM. An equal volume (10 µl) of the serial dilution and of the diluted labelled DMC1 were mixed and loaded in glass capillaries (MonolithTM NT.115 MST Premium Coated Capillaries, Nanotemper GmbH). The initial fluorescence and the thermophoretic mobility were measured on a Monolith NT.115 system (NanoTemper Technologies). […]
As a change in initial fluorescence was detected, SDS denaturation (SD) tests were performed according to the manufacturer’s instructions to determine whether these changes were ligand-induced and whether the data could therefore be used to derive affinity measurements. […] After incubating each for 5 minutes at 95 °C to denature the proteins and subject to brief centrifugation, the samples were loaded onto Premium Coated Capillaries and their initial fluorescence measurements recorded. […] Initial fluorescence readings were used to derive binding affinities.

[4] = system: RAD51 L180E-ssDNA filaments; test: EMSA, protection of RAD51 L180E-ssDNA filaments from BRC4-mediated disruption (random sequence ssDNA); type: biochemical; details: 100-nt random ssDNA
Experimental: as §1

[5] = system: RAD51-ssDNA filaments; test: EMSA, protection of RAD51-ssDNA filaments from BRC4-mediated disruption (random sequence ssDNA); type: biochemical; details: 100-nt random ssDNA; 10-fold excess of Ex27
Experimental: as §1

[6] = system: RAD51-ssDNA (polydT) filaments; test: EMSA, protection of RAD51-ssDNA (polydT) filaments from BRC4-mediated disruption; type: biochemical
Experimental: as §1

“ATRNEKMRHLITTGRPTKVFVPPFKTKSHFHRVE [Ex14]” was tested, and the “protection of DMC1-ssDNA filaments from BRC4-mediated disruption” value (shortened to “protection of DMC1-ssDNA filaments”) ([1]; 5-fold excess (55 μM) peptide) was “complete protection”, the “protection of DMC1-ssDNA filaments” value ([1]; TEA pH 7.5 + KCl, Ex14 10-fold stoichiometric excess (110 μM)) was “protected against BRC4-mediated disruption; also recorded: protected filaments from disruption” and the “protection of DMC1-ssDNA filaments” value ([1]; equimolar (11 μM) peptide) was “some protection”. The “super-shift of pre-formed DMC1-ssDNA filaments” value (“super-shift” below) ([2]; 5-fold stoichiometric excess (55 μM)) was “substantial”, the “super-shift” value ([2]; 100-nt random ssDNA, 4 °C) was “inducing a super-shift; also recorded: induced a super-shift” and the “super-shift” value ([2]; equimolar (11 μM)) was “noticeable”. The “interaction by MST (in words)” value [3] was “not detectable; also recorded: abolished its ability to bind Ex14”.

In the case of “Ex27: BRCA2 exon 27 PhePP peptide, amino acids 3270-3315 (ALDFLSRLPLPPPVSPICTFVSPAAQKAFQPPRSCGTKYETPIKKK; UniProt P51587 3270-3315, looked up, fragment)”, the “protection of RAD51 L180E-ssDNA filaments from BRC4-mediated disruption” value [4] was “not protected; also recorded: abrogated”, the “protection of RAD51-ssDNA filaments from BRC4-mediated disruption” value [5] was “less complete; also recorded: not complete; also recorded: protected against BRC4-mediated disruption” and the “protection of RAD51-ssDNA (polydT) filaments from BRC4-mediated disruption” value ([6]; 3-fold excess of Ex27 (33 μM), 10-fold excess of BRC4) was “some protection; also recorded: protection at a 3-fold excess”. For the same substance, the “protection of RAD51-ssDNA (polydT) filaments from BRC4-mediated disruption” value ([6]; 100-nt polydT, 10-fold excess of Ex27) was “protects; also recorded: full protection; also recorded: complete protection” and the “protection of RAD51-ssDNA filaments from BRC4-mediated disruption” value ([6]; equimolar Ex27 (11 µM), 10-fold excess of BRC4) was “no protection”.
